# Experimental data reported in patent US10548898B2, “Quinazoline compounds” (Gilead Sciences, Inc., priority 2014, dated 2020).
# Where two headings read alike, the source gives them in different places.
# Tests used:
# Assay type in all cases: cell-based
# [1] = system: HIV-1 recombinant strain encoding reverse transcriptase mutation L100I/Y181C; assay: Resistance profile against HIV-1 RT mutants in MT-2 cells, L100I/Y181C; settings: ratio of mean EC50 mutant/WT virus
# Method: (§1) Compounds were tested for antiviral activity against a panel of NNRTI resistant viruses. A panel of 8 clonal site-directed mutant viruses representing the major resistance development pathways against rilpivirine (“RPV”), efavirenz (“EFV”), and nevirapine (“NVP”), containing both single and double mutations within HIV-1 reverse transcriptase was employed. Further details and background can be found in Janssen et al. J. Med. Chem, 2005, 48, 1901-1909; Das et al., Proc. Nat. Acad. Sci., 2008, vol., 105, no. 5, 1466-1471; and Kuroda et al., Nature Chemistry, 2013, DOI: 10.1038/NCHEM. 1559. […] HIV-1 recombinant strains encoding reverse transcriptase mutations K103N, Y181C, Y188L, G190A, K103N/Y181C, L1001/Y181C, E138K or E138KIM 184V were constructed by site-directed mutagenesis. Wild-type and mutant viruses were prepared by transfecting infectious proviral HXB2-based cDNA clones into MT-2 cells and harvesting the cell supernatants. MT-2 cells were infected with wild-type and mutant HIV-1 strains at a multiplicity of infection (MOI) of 0.005 by gentle mixing for 3 hours at 37° C. and then added at a density of 16,667 cells per well in 50 μL complete RPMI cell culture media (containing 10% fetal bovine serum (FBS) and 10% penicillin-streptomycin) to 96-well plates containing 50 μL of a 3-fold serial dilution of test compounds in RPMI medium. After 5 days of incubation at 37° C. in a humidified incubator in the presence of 5% CO2. 100 μL of Cell Titer-Glo™ Reagent (Promega Biosciences, Inc., Madison, Wis.) was added to each well and the relative light units (RLU) measured on an Envision plate reader. […] The EC50 value was defined as the compound concentration inducing a 50% decrease in virus replication. Data analysis for the antiviral activity observed in MT-2 cells was performed using XL-Fit™ software (IDBS, Guildford, Surrey, UK) to calculate EC50 from an 8-point dose-response curve using the following equation:
# (§2) [formula] where y=virus inhibition, x=drug concentration, M=maximum inhibition, H=minimum inhibition and n=Hill coefficient, EC50 values (mean±standard deviation) were calculated from at least three independent experiments performed in triplicate. The level of resistance was calculated as a ratio of the mean EC50 for each mutant/WT virus. Results are disclosed in FIG. 1 and in Tables 3 and 4 below.
# [2] = system: HIV-1 recombinant strain encoding reverse transcriptase mutation Y181C; assay: Resistance profile against HIV-1 RT mutants in MT-2 cells, Y181C; settings: ratio of mean EC50 mutant/WT virus
# Method: as §1, §2
# [3] = system: HIV-1 reverse transcriptase mutant Y181C; assay: High throughput cytopathic effect assay in MT-4 cells, Y181C mutant; settings: for EC50: Human immunodeficiency virus 1, MT4, 120 h, read-out: MT4 EC50 (nM) against Y181C; for FC against mutant Y181C: fold change of MT4 EC50 versus w.t. assay 2
# Source text: (§3) Compounds were screened in a miniaturized, high throughput cytopathic effect assay for activity against HIV-1 HBX2 (wild type) and HIV-1 reverse transcriptase mutants K103N and Y181C. In Tables 1 and 2 below. “w.t.” refers to results of the tested compounds run with the wildtype 1 and “w.t, assay 2” refers results of the tested compounds run with the wildtype on the same day as the testing of the compounds with the mutants. Thus, “w.t, assay 2” was run under the same conditions as the testing of the compounds with the mutants and provides a direct comparison with the results from the testing with the mutants.
# (§4) Ten-point serial dilutions of compounds with half-log step size were generated in DMSO. AZT ([…]) was used as the positive control and DMSO as the negative control. The Echo acoustic dispenser was used to deliver 200 nL of serially diluted compound into sterile 384 well tissue culture assay plates. Two million MT-4 cells were incubated with each of the 3 viruses at MOI of 0.0005 in separate 1 mL infection tubes for 1 hour at 37° C. The cells were diluted in cell culture medium (RPMI+10% FBS) to 50.000 cells/mL. The infected cells were added to 384 well assay plates containing serially dilute compounds. Assay plates were incubated for 5 days in a humidified incubator set at 37° C. and 5% CO2. To measure the cytopathic effect of HIV, 40 μL Cell TiterGlo was added to each well and the resulting luminescence signal is read with the Envision plate reader (Perkin Elmer). Data were normalized to positive and negative controls in each plate and expressed as % CPE Protection. EC50 values were defined as the compound concentration that caused a 50% decrease in luminescence signal, and were calculated by non-linear regression using Pipeline Pilot software by applying a four parameter fit equation (Accelrys, San Diego, Calif.).
# [4] = system: HIV-1 recombinant strain encoding reverse transcriptase mutation K103N; assay: Resistance profile against HIV-1 RT mutants in MT-2 cells, K103N; settings: ratio of mean EC50 mutant/WT virus
# Method: as §1, §2
# [5] = system: HIV-1 recombinant strain encoding reverse transcriptase mutation K103N/Y181C; assay: Resistance profile against HIV-1 RT mutants in MT-2 cells, K103N/Y181C; settings: ratio of mean EC50 mutant/WT virus
# Method: as §1, §2
# [6] = system: HIV-1 recombinant strain encoding reverse transcriptase mutation Y188L; assay: Resistance profile against HIV-1 RT mutants in MT-2 cells, Y188L; settings: ratio of mean EC50 mutant/WT virus
# Method: as §1, §2
# [7] = system: HIV-1 HBX2 (wild type); assay: High throughput cytopathic effect assay in MT-4 cells, wild type HIV-1
# Source text: as §3, §4
# [8] = system: HIV-1 reverse transcriptase mutant K103N; assay: High throughput cytopathic effect assay in MT-4 cells, K103N mutant; settings: for EC50: Human immunodeficiency virus 1, MT4, 120 h, read-out: MT4 EC50 (nM) against K103N; for FC against mutant K103N: fold change of MT4 EC50 versus w.t. assay 2
# Source text: as §3, §4
# [9] = system: HIV-1 recombinant strain encoding reverse transcriptase mutation G190A; assay: Resistance profile against HIV-1 RT mutants in MT-2 cells, G190A; settings: ratio of mean EC50 mutant/WT virus
# Method: as §1, §2
# [10] = biological target: T1, hERG channels (Homo sapiens, UniProt Q12809); assay: hERG assay, whole cell recordings in CHO cell line stably expressing hERG channels; settings: CHO cells, whole cell patch clamp; greater than values indicate the maximum achievable concentration in the assay
# T1 construct: host or cells: CHO cell line stably expressing hERG
# T1 sequence (Q12809 whole entry): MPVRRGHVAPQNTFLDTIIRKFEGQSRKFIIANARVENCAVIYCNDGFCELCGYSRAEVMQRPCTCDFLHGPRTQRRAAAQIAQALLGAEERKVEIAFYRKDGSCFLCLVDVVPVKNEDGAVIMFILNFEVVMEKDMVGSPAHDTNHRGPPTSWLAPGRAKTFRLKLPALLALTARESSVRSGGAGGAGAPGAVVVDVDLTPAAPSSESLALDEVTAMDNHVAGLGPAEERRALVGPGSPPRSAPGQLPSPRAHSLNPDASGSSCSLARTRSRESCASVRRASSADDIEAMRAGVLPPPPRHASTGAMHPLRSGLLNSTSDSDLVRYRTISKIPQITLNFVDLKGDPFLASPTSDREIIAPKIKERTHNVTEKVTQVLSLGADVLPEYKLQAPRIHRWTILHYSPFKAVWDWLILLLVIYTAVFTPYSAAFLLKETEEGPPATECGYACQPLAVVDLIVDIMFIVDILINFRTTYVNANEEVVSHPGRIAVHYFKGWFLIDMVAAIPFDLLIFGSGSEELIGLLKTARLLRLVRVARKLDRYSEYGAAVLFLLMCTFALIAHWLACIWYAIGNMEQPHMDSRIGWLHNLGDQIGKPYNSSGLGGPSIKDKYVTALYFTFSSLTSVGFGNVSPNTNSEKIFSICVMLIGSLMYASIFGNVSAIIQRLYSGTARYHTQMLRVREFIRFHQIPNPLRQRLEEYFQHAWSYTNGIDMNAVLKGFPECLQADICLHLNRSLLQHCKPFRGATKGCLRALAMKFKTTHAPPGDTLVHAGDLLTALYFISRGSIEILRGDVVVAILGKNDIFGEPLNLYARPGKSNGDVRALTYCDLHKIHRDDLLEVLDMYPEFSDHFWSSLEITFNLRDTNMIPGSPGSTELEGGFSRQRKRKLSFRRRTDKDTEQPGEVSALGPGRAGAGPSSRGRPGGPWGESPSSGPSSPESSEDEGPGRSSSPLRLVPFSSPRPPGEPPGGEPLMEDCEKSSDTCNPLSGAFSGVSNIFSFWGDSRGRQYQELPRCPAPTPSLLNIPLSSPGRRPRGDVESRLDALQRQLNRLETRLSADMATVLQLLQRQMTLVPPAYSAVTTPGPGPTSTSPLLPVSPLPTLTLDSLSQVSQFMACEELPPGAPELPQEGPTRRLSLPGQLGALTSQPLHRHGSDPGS
# Method: AVIVA's CHO cell line, which stably expresses hERG channels, was used for the study. Cells were cultured in DMEM/F12 containing 10% FBS, 1% penicillin/streptomycin and 500 μg/ml G418. Before testing, cells were harvested using Accumax (Innovative Cell Technologies).
# External Solution: 2 mM CaCl2; 2 mM MgCl2; 4 mM KCl; 150 mM NaCl; 10 mM Glucose; 10 mM HEPES; 305-315 mOsm; pH 7.4 (adjusted with 5M NaOH.)
# Internal Solution: 140 mM KCl; 10 mM MgCl2; 6 mM EGTA; 5 mM HEPES-Na; 5 mM ATP-Mg; 295-305 mOsm; pH 7.25 (adjusted with 1M KOH).
# Whole cell recordings were performed using PX 7000A (Axon Instruments) with AVIVA's SealChip™ technology. Cells were voltage clamped at a holding potential of −80 mV. The hERG current was then activated by a depolarizing step to −50 mV for 300 ms. This first step at −50 mV was used as a baseline for measuring peak amplitude of the tail current. Next, a voltage step to +20 mV was applied for 5 s to activate the channels. Finally, a step back to −50 mV for 5 s removed activation and the deactivating tail current was recorded.
# All test articles were prepared from 10 mM DMSO stock solutions. Solutions were mixed by sonication for 20 min, followed by vigorous vortexing. Prior to testing, compounds were diluted to test concentrations in glass vials using External Solution. Dilutions were prepared no longer than 20 min prior to use.
# After achieving whole cell configuration, cells were monitored for 90 s to assess stability and then washed with External Solution for 66 s. The voltage protocol was then applied to the cells every 12 s throughout the procedure. Only stable cells with recording parameters above threshold were allowed to enter the drug addition procedure.
# External solution containing 0.1% DMSO (vehicle) was applied to the cells to establish a baseline. After allowing the current to stabilize for 3 to 10 min, test articles were applied. Test article solutions were added to cells in 4 separate additions. Cells were kept in test solution until effect of the test article reached steady state, to a maximum of 12 min. Next, 1 μM cisapride (positive control) was added. Finally, washout with External Solution was performed until the recovery current reached steady state.
# Data analysis was performed using DataXpress (Axon Instruments), Clampfit (Axon Instruments) and Origin (OriginLab Corporation) software. The greater than values in Table 5 indicate the maximum achievable concentration in the assay (e.g., compounds achieving their solubility limit).
# [11] = Human immunodeficiency virus 1, MT4, 120 h, MT-4 cells, 5 days, cytopathic effect, Cell TiterGlo, read-out: MT4 EC50 (nM) against w.t.
# [12] = Human immunodeficiency virus 1, MT4, read-out: MT4 EC50 (nM) against w.t. assay 2
Structure (SMILES),Biology resistance panel-low throughput fold change (FC) L100I/Y181C [1],Biology resistance panel-low throughput fold change (FC) Y181C [2],EC50 [3],FC against mutant Y181C [3],Biology resistance panel-low throughput fold change (FC) K103N [4],Biology resistance panel-low throughput fold change (FC) K103N/Y181C [5],Biology resistance panel-low throughput fold change (FC) Y188L [6],"EC50 [7, 11]","EC50 [7, 12]",EC50 [8],FC against mutant K103N [8],Biology resistance panel-low throughput fold change (FC) G190A [9],hERG [10],"EC50 ([7]; Human immunodeficiency virus 1, MT4, 120 h, read-out: MT4 EC50 (nM) against w.t.)"
"Cc1cc(/C=C/C#N)cc(C)c1-c1cccc2cnc(Nc3ccc(C#N)cc3)nc12 [Compound 1, (E)-4-((8-(4-(2-Cyanovinyl)-2,6-dimethylphenyl)quinazolin-2-yl)amino)benzonitrile]",6.9,5.7,17.8 nM,2.9,1.3,14.8,15.2,3 nM,6.2 nM,8.8 nM,1.4,0.6,–,–
"Cc1cc(/C=C/C#N)cc(C)c1-c1cccc2c(N)nc(Nc3ccc(C#N)nc3)nc12 [Compound 9, (E)-5-((4-Amino-8-(4-(2-cyanovinyl)-2,6-dimethylphenyl)quinazolin-2-yl)amino)picolinonitrile]",4.0,5.7,10.8 nM,3.4,1.0,14.7,11.4,3.4 nM,3.2 nM,3.5 nM,1.1,–,>3 µM,–
"Cc1cc(/C=C/C#N)cc(C)c1-c1cccc2c(N)nc(Nc3ccc(C#N)cn3)nc12 [Compound 10, (E)-6-((4-Amino-8-(4-(2-cyanovinyl)-2,6-dimethylphenyl)quinazolin-2-yl)amino)nicotinonitrile]",3.8,11.9,29.3 nM,9.8,0.9,19.9,53.6,2.8 nM,3 nM,2.9 nM,1.0,–,>3 µM,–
"Cc1cc(/C=C/C#N)cc(C)c1-c1cccc2c(N)nc(Nc3ccc(C#N)nn3)nc12 [Compound 11, (E)-6-((4-Amino-8-(4-(2-cyanovinyl)-2,6-dimethylphenyl)quinazolin-2-yl)amino)pyridazine-3-carbonitrile]",85.0,154.0,126 nM,29.8,2.1,157.0,161.0,4.7 nM,4.2 nM,5.2 nM,1.2,–,>3 µM,–
"Cc1cc(/C=C/C#N)cc(C)c1-c1cccc2c(N)nc(Nc3cnc(C#N)cn3)nc12 [Compound 12, (E)-5-((4-Amino-8-(4-(2-cyanovinyl)-2,6-dimethylphenyl)quinazolin-2-yl)amino)pyrazine-2-carbonitrile]",–,–,12.5 nM,6.9,–,–,–,–,1.8 nM,1.7 nM,0.9,–,>3 µM,1.8 nM
"Cc1cc(/C=C/C#N)cc(C)c1-c1cccc2cnc(Nc3ccc(C#N)cn3)nc12 [Compound 13, (E)-6-((8-(4-(2-Cyanovinyl)-2,6-dimethylphenyl)quinazolin-2-yl)amino)nicotinonitrile]",–,–,27.4 nM,6.4,–,–,–,3.2 nM,4.3 nM,5.9 nM,1.4,–,1.3 µM,–
"Cc1ccnc2c1NC(=O)c1cccnc1N2C1CC1 [Nevirapine, reference compound]",>229,>229,–,–,87.0,–,>229,65 nM,–,–,–,183.0,–,–
